# Reference: patent publication US10759816B2, “Heterocyclic compounds as RSV inhibitors” (Enanta Pharmaceuticals, Inc., priority 2016, dated 2020)
# System: genotype A, "Long" strain RSV
# Test: RSV-A in vitro cytoprotection assay in HEp-2 cells (ATPlite readout of cell viability)
# Type: cell-based, Human respiratory syncytial virus
# Conditions: human respiratory syncytial virus, HEp-2, HEp-2 cells, genotype A “Long” strain RSV, cytoprotection; read-out: Human RSV-A (“Long” strain) EC50
# Source text: RSV is a single stranded negative sense RNA virus that causes respiratory tract infections which can be dangerous to infants, the elderly, and immunosuppressed individuals. Currently there is no vaccine, and therapeutic options are both costly and of limited effectiveness. These approved treatments are Ribavirin, and Palivizumab/Synagis (a monoclonal antibody). RSV has two genotypes, A and B, which differ primarily in the structure of the virus' surface “G” attachment protein. Our current primary screen focuses on RSV-A and uses an in vitro cytoprotection assay where compounds are added in 2-fold dilutions to cells which are then subjected to fully replicative viral particles. Cell viability is measured several days later along with separate measurements of compound cytotoxicity. This report focuses on the results of our most recent screening of compounds.
# HEp-2 cells, (originally derived from tumors grown in irradiated-cortisonised weanling rats that had been injected with epidermoid carcinoma tissue from a person's larynx, but later found to be indistinguishable from HeLa cells by PCR DNA analysis), were used for the culturing of genotype A, “Long” strain RSV. Flasks were inoculated with RSV and viral stocks were collected once cytopathic effect (CPE) was greater than 90%. Viral stocks in 25% sucrose media were snap frozen using liquid nitrogen to increase viral stability. Viral stock titers were quantified by tissue culture infectious dose 50% (TCID50) using 8,000 cells per well and 3-fold viral dilutions across a 96-well plate, cultured for 4 days.
# Following extensive parameter testing, the final assay is run as follows: HEp-2 cells are seeded into the inner 60 wells of a 96-well plate at 8,000 cells per well in a volume of 50 μL using Growth Media (DMEM without phenol red, 1% L-Glut, 1% Penn/Strep, 1% nonessential amino acids, 10% FBS). 2-Fold serial dilutions of control and test compounds are added to the wells in duplicate in a total volume of 25 μL. Viral stock is then added to the wells in a volume of 25 μL, bringing the total volume of each well to 100 μL. Each 96-well plate has a control column of 6 wells with cells and virus but no compound (negative control, max CPE), a column with cells but no compound or virus (positive control, minimum CPE), and a column with no cells or virus or compound (background plate/reagent control). The control wells with cells but no virus are given an additional 25 uL of growth media containing an equal quantity of sucrose as those wells receiving the viral stock in order to keep consistent in media and volume conditions. The outer wells of the plate are filled with 125 μL of growth media to act as a thermal and evaporative moat around the test wells. Following a 4-day incubation period, the plates are read using ATPlite (50 uL added per well), which quantifies the amount of ATP (a measure of cell health) present in each well. Assay plates are read using the Envision luminometer. In parallel, cytotoxicity is examined on an additional 96-well plate treated in an identical manner, but substituting the 25 μL of viral stock for 25 μL of growth media. […] EC50 ranges are as follows: A <0.4 μM; B 0.4-0.8 μM; C >0.8 μM.
smiles,measurement,value
O=C(NC1CC1)c1cc2c(s1)-c1ccccc1N(C(=O)c1cccc(C3=CCN(C4COC4)CC3)n1)CC2 [Example 56],EC50,> 800 nM
O=C(NC1CC1)c1cc2c(s1)-c1ccccc1N(C(=O)c1cccc(C3CCN(C4COC4)CC3)n1)CC2 [Example 57],EC50,400 to 800 nM
CC(=O)N1CCC(c2cccc(C(=O)N3CCc4cc(C(=O)NC5CC5)sc4-c4ccccc43)n2)CC1 [Example 58],EC50,400 to 800 nM
O=C(NC1CC1)c1cc2c(s1)-c1ccccc1N(C(=O)c1cccc(C3=CCOCC3)n1)CC2 [Example 59],EC50,400 to 800 nM
O=C(NC1CC1)c1cc2c(s1)-c1ccccc1N(C(=O)c1cccc(C3CCOCC3)n1)CC2 [Example 60],EC50,400 to 800 nM
O=C(NC1CC1)c1cc2c(s1)-c1ccccc1N(C(=O)c1cccc(NC3CCOCC3)n1)CC2 [Example 61],EC50,> 800 nM
COc1ccc(-c2cccc(C(=O)N3CCc4cc(C(=O)NC5CC5)sc4-c4ccccc43)n2)cc1 [Example 62],EC50,400 to 800 nM
CC(=O)c1ccc(-c2cccc(C(=O)N3CCc4cc(C(=O)NC5CC5)sc4-c4ccccc43)n2)cc1 [Example 63],EC50,400 to 800 nM
CC(C)(O)c1ccc(-c2cccc(C(=O)N3CCc4cc(C(=O)NC5CC5)sc4-c4ccccc43)n2)cc1 [Example 64],EC50,400 to 800 nM
COc1ccc(-c2cccc(C(=O)N3CCc4cc(C(=O)NC5CC5)sc4-c4ccccc43)n2)cn1 [Example 65],EC50,< 400 nM
O=C(NC1CC1)c1cc2c(s1)-c1ccccc1N(C(=O)c1cccc(-c3ccc(N4CCOCC4)cc3)n1)CC2 [Example 66],EC50,400 to 800 nM
O=C(NC1CC1)c1cc2c(s1)-c1ccccc1N(C(=O)c1cccc(-c3cccc(N4CCOCC4)c3)n1)CC2 [Example 67],EC50,> 800 nM
O=C(NC1CC1)c1cc2c(s1)-c1ccccc1N(C(=O)c1cccc(-c3ccc(C(=O)N4CCOCC4)cc3)n1)CC2 [Example 68],EC50,400 to 800 nM
O=C(NC1CC1)c1cc2c(s1)-c1ccccc1N(C(=O)c1cccc(-c3cccc(C(=O)N4CCOCC4)c3)n1)CC2 [Example 69],EC50,400 to 800 nM
COc1ccc(-c2nc(C(=O)N3CCc4cc(C(=O)NC5CC5)sc4-c4ccccc43)ccc2C#N)cn1 [Example 70],EC50,> 800 nM
O=C(NC1CC1)c1cc2c(s1)-c1ccccc1N(C(=O)c1ccc(F)c(-c3ccnc(N4CCOCC4)c3)n1)CC2 [Example 71],EC50,400 to 800 nM
COc1cc(-c2cccc(C(=O)N3CCc4cc(C(=O)NC5CC5)sc4-c4ccccc43)n2)ccn1 [Example 72],EC50,400 to 800 nM
O=C(NC1CC1)c1cc2c(s1)-c1ccccc1N(C(=O)c1cccc(-c3ccc(C(F)(F)F)nc3)n1)CC2 [Example 73],EC50,400 to 800 nM
COCCOc1ccc(-c2cccc(C(=O)N3CCc4cc(C(=O)NC5CC5)sc4-c4ccccc43)n2)cn1 [Example 74],EC50,400 to 800 nM
CC(C)Oc1ccc(-c2cccc(C(=O)N3CCc4cc(C(=O)NC5CC5)sc4-c4ccccc43)n2)cn1 [Example 75],EC50,400 to 800 nM
O=C(NC1CC1)c1cc2c(s1)-c1ccccc1N(C(=O)c1cccc(-c3cnn(C4CCOCC4)c3)n1)CC2 [Example 76],EC50,400 to 800 nM
O=C(NC1CC1)c1cc2c(s1)-c1ccccc1N(C(=O)c1cccc(-c3ccc(C4CC4)nc3)n1)CC2 [Example 77],EC50,400 to 800 nM
N#Cc1ccc(-c2cccc(C(=O)N3CCc4cc(C(=O)NC5CC5)sc4-c4ccccc43)n2)cn1 [Example 78],EC50,400 to 800 nM
O=C(NC1CC1)c1cc2c(s1)-c1ccccc1N(C(=O)c1cccc(-c3ccc(N4CCCC4)nc3)n1)CC2 [Example 80],EC50,> 800 nM
O=C(NC1CC1)c1cc2c(s1)-c1ccccc1N(C(=O)c1cccc(-c3ccc(F)nc3)n1)CC2 [Example 81],EC50,400 to 800 nM
CN(C)c1ccc(-c2cccc(C(=O)N3CCc4cc(C(=O)NC5CC5)sc4-c4ccccc43)n2)cn1 [Example 82],EC50,> 800 nM
CNC(=O)c1ccc(-c2cccc(C(=O)N3CCc4cc(C(=O)NC5CC5)sc4-c4ccccc43)n2)cn1 [Example 83],EC50,400 to 800 nM
CN(C)c1cc(-c2cccc(C(=O)N3CCc4cc(C(=O)NC5CC5)sc4-c4ccccc43)n2)ccn1 [Example 84],EC50,400 to 800 nM
O=C(NC1CC1)c1cc2c(s1)-c1ccccc1N(C(=O)c1cccc(-c3ccnc(N4CCOCC4)c3)n1)CC2 [Example 85],EC50,< 400 nM
O=C(NC1CC1)c1cc2c(s1)-c1ccccc1N(C(=O)c1cccc(-c3ccnc(N4CCCOCC4)c3)n1)CC2 [Example 86],EC50,< 400 nM
O=C(NC1CC1)c1cc2c(s1)-c1ccccc1N(C(=O)c1cccc(-c3cccnc3N3CCOCC3)n1)CC2 [Example 87],EC50,400 to 800 nM
O=C(NC1CC1)c1cc2c(s1)-c1ccccc1N(C(=O)c1cccc(-c3cccnc3N3CCCOCC3)n1)CC2 [Example 88],EC50,400 to 800 nM
O=C(NC1CC1)c1cc2c(s1)-c1ccccc1N(C(=O)c1cccc(-c3ccc(N4CCOCC4)nc3)n1)CC2 [Example 89],EC50,400 to 800 nM
O=C(NC1CC1)c1cc2c(s1)-c1ccccc1N(C(=O)c1cccc(-c3ccc(N4CCCOCC4)nc3)n1)CC2 [Example 90],EC50,400 to 800 nM
O=C(NC1CC1)c1cc2c(s1)-c1ccccc1N(C(=O)c1cccc(-c3cc(N4CCOCC4)ncc3F)n1)CC2 [Example 91],EC50,400 to 800 nM
O=C(NC1CC1)c1cc2c(s1)-c1ccccc1N(C(=O)c1cccc(-c3cnc(N4CCOCC4)c(F)c3)n1)CC2 [Example 92],EC50,400 to 800 nM
O=C(NC1CC1)c1cc2c(s1)-c1ccccc1N(C(=O)c1ccc(Cl)c(-c3ccnc(N4CCOCC4)c3)n1)CC2 [Example 93],EC50,> 800 nM
CNC(=O)c1cc2c(s1)-c1ccccc1N(C(=O)c1cccc(-c3ccc(OC)nc3)n1)CC2 [Example 94],EC50,> 800 nM
COc1ccc(-c2cccc(C(=O)N3CCc4cc(C(=O)N(C)C)sc4-c4ccccc43)n2)cn1 [Example 95],EC50,400 to 800 nM
COc1ccc(-c2cccc(C(=O)N3CCc4cc(C(=O)NCC5CC5)sc4-c4ccccc43)n2)cn1 [Example 96],EC50,400 to 800 nM
COCCNC(=O)c1cc2c(s1)-c1ccccc1N(C(=O)c1cccc(-c3ccc(OC)nc3)n1)CC2 [Example 97],EC50,400 to 800 nM
CNC(=O)c1cc2c(s1)-c1ccccc1N(C(=O)c1cccc(N3CCCOCC3)n1)CC2 [Example 98],EC50,< 400 nM
CN(C)C(=O)c1cc2c(s1)-c1ccccc1N(C(=O)c1cccc(N3CCCOCC3)n1)CC2 [Example 99],EC50,> 800 nM
O=C(NCC1CC1)c1cc2c(s1)-c1ccccc1N(C(=O)c1cccc(N3CCCOCC3)n1)CC2 [Example 100],EC50,< 400 nM
COCCNC(=O)c1cc2c(s1)-c1ccccc1N(C(=O)c1cccc(N3CCCOCC3)n1)CC2 [Example 101],EC50,< 400 nM
O=C(NC1CC1)c1cc2c(s1)-c1ccccc1N(S(=O)(=O)c1cccc(N3CCCOCC3)n1)CC2 [Example 102],EC50,> 800 nM
O=C(NC1CC1)c1cc2c(s1)-c1ccccc1N(S(=O)(=O)c1cccc(-c3ccnc(N4CCOCC4)c3)n1)CC2 [Example 103],EC50,> 800 nM
O=C(NC1CC1)c1ccc2c(c1)-c1ccccc1N(C(=O)c1cccc(N3CCCOCC3)n1)CC2 [Example 104],EC50,> 800 nM
COc1ccc(-c2cccc(C(=O)N3CCc4ccc(C(=O)NC5CC5)cc4-c4ccccc43)n2)cn1 [Example 105],EC50,> 800 nM
O=C(NC1CC1)c1cc2c(o1)-c1ccccc1N(C(=O)c1cccc(N3CCCOCC3)n1)CC2 [Example 106],EC50,400 to 800 nM
COc1ccc(-c2cccc(C(=O)N3CCc4cc(C(=O)NC5CC5)oc4-c4ccccc43)n2)cn1 [Example 107],EC50,400 to 800 nM
